According to US20240358693A1, “METHODS OF TREATING PAIN” (Aisa Pharma, Inc., priority 2023, published 2024):

System: participants with Raynaud's Phenomenon secondary mostly to systemic sclerosis (SSc-RP)
Test: Frequency of weekly symptomatic RP attacks (patient diary), Phase 2a study Part A
Type: in vivo, human
Protocol: A randomized, placebo-controlled phase 2a study was performed and is in progress to assess the safety and efficacy of cilnidipine (10 mg and 20 mg) alone and in combination with 5 mg tadalafil, in participants with diagnosis of scleroderma and/or secondary Raynaud's disease.
The relevant metrics measured by this tool daily are: • Study medication • SSc-RP symptoms (Reporting an attack including duration of attack) • Severity of the attack considering all symptoms of the attack e.g., tingling, numbness, pain, color changes (VAS 0-10 cm scale) • Participant's location at the time of the attack (inside home/outside home) • Selecting symptoms experienced during the attack (tingling, numbness, pain, color changes, other) • Pain rating during the attack (11-point Likert scale) • The RCS based on how much difficulty participants had with Raynaud's today, how many attacks the participant had, and how long they lasted. Participants will also be asked to consider how much pain, numbness, or other symptoms the Raynaud's caused in fingers (including painful sores), and how much the Raynaud's alone affected the use of hands today (VAS 0-10 cm scale).
Percent change from baseline evaluation for frequency of weekly RP attacks were or will be used as the primary efficacy variable. The sponsor-developed participant-informed diary will be used to record data. Frequency of weekly RP attacks is defined as the total number of RP attacks divided by the number of days with available diary data within the last 7 days of each dosing period then multiplied by 7. Total number of RP attacks during the last 7 days of screening period divided by the number of days with available data then multiplied by 7 will be used as baseline for the analysis of all periods. The variable will be calculated as follows:
Percentage change={(weekly RP attacks for the last 7 days of each dosing period−Baseline weekly RP attacks)/Baseline weekly RP attacks}*100%.
Absolute change=weekly RP attacks for the last 7 days of each dosing period−Baseline weekly RP attacks
Percent change from baseline evaluation for frequency of weekly RP attacks was and will be the primary efficacy endpoint. Frequency of weekly RP attacks is defined as the total number of RP attacks divided by the number of days with available diary data within the last 7 days of each dosing period then multiplied by 7. Total number of RP attacks during the last 7 days of screening period divided by the number of days with available data then multiplied by 7 will be used as baseline for the analysis of all periods.
The following data was actually obtained in accordance with the protocol and plan delineated in Examples 1 and 2. The accompanying data involved 11 patients out of the planned 76 patient study. The study was done in patients with scleroderma (systemic sclerosis) who had relatively frequent Raynaud symptoms as they needed to average at least one attack per day during a screening period of up to two weeks. In this first phase of this double-blind placebo-controlled, prospective randomized study, patients were treated in parallel and after meeting study criteria were randomized to receive either placebo, cilnidipine 10 mg daily, cilnidipine 20 mg daily, tadalafil 5 mg daily, cilnidipine 10 mg plus 5 mg of tadalafil, or cilnidipine 20 mg plus 5 mg of tadalafil.

[1] = Pooled Cilnidipine 20 mg and Cilnidipine 20 mg + Tadalafil 5 mg, n 4, Excluding Outliers, ITT Part A
[2] = Pooled Cilnidipine (N = 3), ITT Part A
[3] = Pooled Cilnidipine, n 3, Excluding Outliers, ITT Part A
[4] = Pooled Cilnidipine, n 3, by Baseline RCS, 1st block (RCS <5.0), ITT Part A
[5] = all cilnidipine and cilnidipine plus tadalafil treated patients (n=7)
[6] = excluding outliers, by baseline RCS, first subgroup, cilnidipine 10 mg, tadalafil 5 mg daily
[7] = excluding outliers, by baseline RCS, first subgroup, cilnidipine 20 mg, tadalafil 5 mg daily
[8] = excluding outliers, by baseline RCS, first subgroup, pooled cilnidipine 10 mg and 20 mg, tadalafil 5 mg daily

SMILES: COCCOC(=O)C1=C(C)NC(C)=C(C(=O)OC/C=C/c2ccccc2)C1c1cccc([N+](=O)[O-])c1 (centres unmarked) [Cilnidipine, cilnidipine]
- Weekly Symptomatic RP Attacks Change from Baseline, Median [1]: −3.50
- Weekly Symptomatic RP Attacks Percent Change from Baseline, Mean (SD) [1]: −25.00 (14.410) %
- Weekly Symptomatic RP Attacks Percent Change from Baseline, Median [1]: −28.17%
- Weekly Symptomatic RP Attacks, Mean (SD) [1]: 9.75 (3.403)
- Weekly Symptomatic RP Attacks, Median [1]: 10.50
- Weekly Symptomatic RP Attacks Change from Baseline, Mean [2]: −5.33
- Weekly Symptomatic RP Attacks Change from Baseline, Median [2]: −7.00
- Weekly Symptomatic RP Attacks Percent Change from Baseline, Mean [2]: −33.60%
- Weekly Symptomatic RP Attacks Percent Change from Baseline, Median [2]: −33.33%
- Weekly Symptomatic RP Attacks, Mean [2]: 10.00
- Weekly Symptomatic RP Attacks, Median [2]: 11.00
- Weekly Symptomatic RP Attacks Change from Baseline, Mean (SD) [3]: −5.33 (2.887)
- Weekly Symptomatic RP Attacks Change from Baseline, Median [3]: −7.00
- Weekly Symptomatic RP Attacks Percent Change from Baseline, Mean (SD) [3]: −33.60 (5.164) %
- Weekly Symptomatic RP Attacks Percent Change from Baseline, Median [3]: −33.33%
- Weekly Symptomatic RP Attacks, Mean (SD) [3]: 10.00 (4.583)
- Weekly Symptomatic RP Attacks, Median [3]: 11.00
- Weekly Symptomatic RP Attacks Change from Baseline, Mean (SD) [4]: −5.33 (2.887)
- Weekly Symptomatic RP Attacks Change from Baseline, Median [4]: −7.00
- Weekly Symptomatic RP Attacks Percent Change from Baseline, Mean (SD) [4]: −33.60 (5.164) %
- Weekly Symptomatic RP Attacks Percent Change from Baseline, Median [4]: −33.33%
- Weekly Symptomatic RP Attacks, Mean (SD) [4]: 10.00 (4.583)
- Weekly Symptomatic RP Attacks, Median [4]: 11.00
- patients in whom the average frequency of Raynaud's attacks decreased more than 25% [5]: 6 of 7
- weekly frequency of Raynaud attacks, direction of change [5]: decrease
- reduction in the weekly frequency of attacks, range (baseline RCS <5.0, all cilnidipine and cilnidipine plus tadalafil treated patients (n=5)): 28%-44%
- Weekly Symptomatic RP Attacks Change from Baseline, Max [6]: −7.0, −7.0
- Weekly Symptomatic RP Attacks Change from Baseline, Mean (SD) [6]: −7.00
- Weekly Symptomatic RP Attacks Change from Baseline, Median [6]: −7.00
- Weekly Symptomatic RP Attacks Change from Baseline, Min [6]: −7.0, −7.0
- Weekly Symptomatic RP Attacks Change from Baseline, Q1 [6]: −7.00, −7.00
- Weekly Symptomatic RP Attacks Change from Baseline, Q3 [6]: −7.00, −7.00
- Weekly Symptomatic RP Attacks Percent Change from Baseline, Max [6]: −33.3, −33.3%
- Weekly Symptomatic RP Attacks Percent Change from Baseline, Mean (SD) [6]: −33.33%
- Weekly Symptomatic RP Attacks Percent Change from Baseline, Median [6]: −33.33%
- Weekly Symptomatic RP Attacks Percent Change from Baseline, Min [6]: −33.3, −33.3%
- Weekly Symptomatic RP Attacks Percent Change from Baseline, Q1 [6]: −33.33, −33.33%
- Weekly Symptomatic RP Attacks Percent Change from Baseline, Q3 [6]: −33.33, −33.33%
- Weekly Symptomatic RP Attacks, Max [6]: 14.0, 14.0
- Weekly Symptomatic RP Attacks, Mean (SD) [6]: 14.00
- Weekly Symptomatic RP Attacks, Median [6]: 14.00
- Weekly Symptomatic RP Attacks, Min [6]: 14.0, 14.0
- Weekly Symptomatic RP Attacks, Q1 [6]: 14.00, 14.00
- Weekly Symptomatic RP Attacks, Q3 [6]: 14.00, 14.00
- Weekly Symptomatic RP Attacks Change from Baseline, Max [7]: −2.0
- Weekly Symptomatic RP Attacks Change from Baseline, Mean (SD) [7]: −4.50 (3.536)
- Weekly Symptomatic RP Attacks Change from Baseline, Median [7]: −4.50
- Weekly Symptomatic RP Attacks Change from Baseline, Min [7]: −7.0
- Weekly Symptomatic RP Attacks Change from Baseline, Q1 [7]: −7.00
- Weekly Symptomatic RP Attacks Change from Baseline, Q3 [7]: −2.00
- Weekly Symptomatic RP Attacks Percent Change from Baseline, Max [7]: −28.6%
- Weekly Symptomatic RP Attacks Percent Change from Baseline, Mean (SD) [7]: −33.73 (7.296) Percent
- Weekly Symptomatic RP Attacks Percent Change from Baseline, Median [7]: −33.73%
- Weekly Symptomatic RP Attacks Percent Change from Baseline, Min [7]: −38.9%
- Weekly Symptomatic RP Attacks Percent Change from Baseline, Q1 [7]: −38.89%
- Weekly Symptomatic RP Attacks Percent Change from Baseline, Q3 [7]: −28.57%
- Weekly Symptomatic RP Attacks, Max [7]: 11.0
- Weekly Symptomatic RP Attacks, Mean (SD) [7]: 8.00 (4.243)
- Weekly Symptomatic RP Attacks, Median [7]: 8.00
- Weekly Symptomatic RP Attacks, Min [7]: 5.0
- Weekly Symptomatic RP Attacks, Q1 [7]: 5.00
- Weekly Symptomatic RP Attacks, Q3 [7]: 11.00
- Weekly Symptomatic RP Attacks Change from Baseline, Max [8]: −2.0
- Weekly Symptomatic RP Attacks Change from Baseline, Mean (SD) [8]: −5.33 (2.887)
- Weekly Symptomatic RP Attacks Change from Baseline, Median [8]: −7.00
- Weekly Symptomatic RP Attacks Change from Baseline, Min [8]: −7.0
- Weekly Symptomatic RP Attacks Change from Baseline, Q1 [8]: −7.00
- Weekly Symptomatic RP Attacks Change from Baseline, Q3 [8]: −2.00
- Weekly Symptomatic RP Attacks Percent Change from Baseline, Max [8]: −28.6%
- Weekly Symptomatic RP Attacks Percent Change from Baseline, Mean (SD) [8]: −33.60 (5.164) Percent
- Weekly Symptomatic RP Attacks Percent Change from Baseline, Median [8]: −33.33%
- Weekly Symptomatic RP Attacks Percent Change from Baseline, Min [8]: −38.9%
- Weekly Symptomatic RP Attacks Percent Change from Baseline, Q1 [8]: −38.89%
- Weekly Symptomatic RP Attacks Percent Change from Baseline, Q3 [8]: −28.57%
- Weekly Symptomatic RP Attacks, Max [8]: 14.0
- Weekly Symptomatic RP Attacks, Mean (SD) [8]: 10.00 (4.583)
- Weekly Symptomatic RP Attacks, Median [8]: 11.00
- Weekly Symptomatic RP Attacks, Min [8]: 5.0
- Weekly Symptomatic RP Attacks, Q1 [8]: 5.00
- Weekly Symptomatic RP Attacks, Q3 [8]: 14.00
